Key:
[1] = test system: wild type and Casp-1−/− mice injected with TAA; experiment: TAA induced liver fibrosis with co-injection of adenosine agonist; type: in vivo, mouse; settings: wildtype mice
Protocol: FIGS. 16A-16B illustrate increased liver fibrosis in wild-type control but not caspase-1-deficient mice in response to adenosine agonist. FIG. 16A: Wild type and Casp-1−/− mice were injected intraperitoneally with TAA with co-injection of CGS21680 (2.5 mg kg^−1 body weight) or vehicle. The liver tissues from each group were collected […] after first injection, and tissue collagen visualized by Sirius red staining, and the representative images are shown. Scale bar corresponds to 500 μm. FIG. 16B: Total liver RNA was extracted and Timp1 mRNA levels quantified. Data are expressed as the mean±SD from three independent experiments. * p<0.05 determined by Student's t-test.
To further test the effect of increased adenosine signaling on fibrosis wild-type and caspase-1 deficient mice were injected with TAA with and without co-injection of the adenosine agonist CGS21680. After one week, liver tissues were stained for collagen with Sirus Red. CGS21680 increased TAA induced liver fibrosis and Timp1 expression in wildtype but not caspase-1 deficient mice (FIGS. 16A-16B).

[2] = test system: IL-1β production in bone marrow derived macrophages; experiment: IL-1β secretion by LPS/ATP-stimulated bone marrow derived macrophages; type: cell-based, mouse; settings: LPS and ATP
Protocol: (§1) FIGS. 6A-6B illustrate the finding that bone marrow macrophages and liver Kupffer cells increase IL-1β in response to adenosine signaling. FIG. 6A: Murine bone marrow derived macrophages (BMDM) were primed with LPS for 16 hours, treated with NECA (10 μM) for 1 hour, and then pulsed with ATP. FIG. 6b: Primary murine liver Kupffer cells were primed with LPS for 16 hours, treated with NECA (10 μM) for 1 hour, and then pulsed with ATP. IL-1β secretion was measured in supernatants 5 hours after pulsing with ATP. Data are expressed as the mean±SD from at least three independent experiments. *p<0.05 determined by Student's t-test.
(§2) C57BL/6 mice were purchased from the National Cancer Institute. ASC−/−, Caspase-1−/−, Nlrp3−/− and P2xr7−/− mice have been described (Rock et al., 2010, Annu Rev Immunol. 28:321-42). A2ora2a flox/flox mice and LysMcre mice were purchased from Jackson Laboratories. HIF-1a flox/flox mice were kindly provided by Dr. Ruslan M Medzhitov (Yale University). 7- to 12-week-old males with a variety of genetic manipulations were used in most experiments. […]
(§3) Primed PECs were both pulsed for 20 min with 5 mM ATP or 10 μM nigericin, and left untreated until culture supernatants were collected. Secretion of IL-1β was determined by enzyme-linked immunoabsorbent assay (ELISA; R&D Systems).

[3] = test system: IL-1β production in liver Kupffer cells; experiment: IL-1β secretion by LPS/ATP-stimulated Kupffer cells; type: cell-based, mouse; settings: LPS and ATP
Protocol: as §1, §2, §3

[4] = test system: wild type C57BL/6 mice treated with LPS; experiment: LPS/D-galactosamine liver injury with adenosine agonist; type: in vivo, mouse
Protocol: FIGS. 14A-14F illustrate increase in serum ALT and changes in liver gene expression in mice treated with LPS in the presence or absence of adenosine agonist. Wild type C57BL/6 mice were injected intraperitoneally with LPS (1 μg/mouse). 16 hours later mice received NECA (2.5 mg kg^−1 body weight) and D-galactosamine (500 mg kg^−1) by IP for 2 hours following liver tissue and serum collection. Serum ALT was determined (FIG. 14A), and the gene expression of Il1β (FIG. 14B), Il6 (FIG. 14C), Hif1α (FIG. 14D), Nlrp3 (FIG. 14E), and tnfα (FIG. 14F) was quantified by real-time PCR using each specific gene primer set as listed. Data are expressed as the mean±SD from 6 mice in each treatment group. *p<0.05 determined by Student's t-test.
The results recited herein show a requirement for adenosine signaling via the A2A receptor for maximal production of IL-1β by macrophages in vitro. With tissue inflammation and injury extracellular adenosine levels are known to increase by a variety of means from the basal levels below 1 μM to levels up to […]. It was tested whether A2A receptor driven inflammasome activity was relevant in vivo; two models of liver injury was used: one acute LPS driven model where liver injury was assessed in 6 hours after LPS, and a second model of sterile injury by a toxic metabolic insult to the liver by thioacetamide (TAA) in which injury was examined at days 1, 2 and 7. A2AR-cKO mice that specifically delete Adora2a gene in macrophages were used. Liver immune populations were intact in these mice (FIG. 13). […] To test the effect of increasing adenosine signaling in vivo, wild-type mice were treated with LPS in the presence or absence of the adenosine agonist NECA.

| Structure (SMILES) | TAA induced liver fibrosis [1] | Timp1 expression [1] | IL-1β production [2] | IL-1β production [3] | serum ALT [4] | whole liver transcript of Hif1a [4] | whole liver transcript of Il1b [4] | whole liver transcript of Il6 [4] | whole liver transcript of Nlrp3 [4] | whole liver transcript of tnfa [4] |
| --- | --- | --- | --- | --- | --- | --- | --- | --- | --- | --- |
| CCNC(=O)[C@H]1O[C@@H](n2cnc3c(N)nc(NCCc4ccc(CCC(=O)O)cc4)nc32)[C@H](O)[C@@H]1O [CGS21680] | increased | increased | – | – | – | – | – | – | – | – |
| CCNC(=O)[C@H]1O[C@@H](n2cnc3c(N)ncnc32)[C@H](O)[C@@H]1O [NECA, 5′-(N-ethylcarboxamido) adenosine] | – | – | significantly increased | significantly increased | significant elevation | significant elevation | significant elevation | significant elevation | significant elevation | reduction |
